Test results from patent publication US11504349B2, “Composition for preventing or treating TNF-related diseases, containing novel derivative as active ingredient, and method for inhibiting TNF activity by using same” (ILAB, priority 2017, dated 2022).
pIC50: −log10 of the molar value.

Tests used:
[1] = Cytotoxicity (CC50) in LM cells, MTT assay; type: cell-based; conditions: mouse, LM cells (mouse fibroblasts); 50% cytotoxic concentration
Procedure: First, the addition of recombinant TNF to mouse fibroblast LM cells induces cell death, and thus, by using the same, the TNF-neutralization bioassay was constructed. In other words, LM cells were pretreated with TNF (20 ng/ml) and the compounds synthesized in the above examples at various concentrations (5×10^4 cells/well), and a sensitizer actinomycin D ([…]) was added, and cultured in a CO2 incubator for 24 hours, and then the MTT assay was carried out. At this time, 10 μl of MTT (5 mg/ml stock) was added, reacted for 4 hours, and then dissolved in DMSO to measure the absorbance at 570 nm. First, the TNF cell death inhibition/neutralization action of TNF-target expected compounds at single concentration (50 or 10 μM) was measured. Second, IC50 values were determined by treating with the compounds having an excellent effect at different concentrations. The % inhibition of TNF was calculated using the following formula: % inhibition of TNF=(OD value of a group treated with TNF and compound−OD value of TNF treated group/(OD value of TNF untreated group−OD value of TNF treated group)×100.
IC50 values were statistically analyzed using Prism 6 (GraphPad) (IC50: 50% inhibitory concentration, CC50: 50% cytotoxic concentration).

[2] = test system: TNF-overexpressing mice; experiment: Therapeutic effect on rheumatoid arthritis, TNF-overexpressing mouse model; type: in vivo
Procedure: First, until the mean level of arthritis of TNF-overexpres sing mice reached 8, the mice were raised. As such, etanercept (4.5 mpk), adalimumab (1.2 mpk), the compound of Example 61 (25 mpk, 50 mpk, or 100 mpk) were orally administered to the mice with rheumatoid arthritis from Week 15 to Week 23, three times a week, and the pathology was measured and recorded from Week 7 to Week 23 (N=5 to 6/group, *P<0.01, **P<0.005, ***P<0.001).

[3] = biological target: etanercept (Homo sapiens, UniProt P20333); experiment: SPR binding to etanercept; conditions: FIG. 2c
[4] = biological target: TNF (Homo sapiens, UniProt P01375); experiment: TNF-neutralization bioassay: TNF-induced cell death of LM cells (MTT); type: cell-based
Procedure, shortened: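 Mouse fibroblast LM cells (5×10^4 cells/well) treated with TNF (20 ng/ml), compound and actinomycin D sensitizer for 24 h. Viability by MTT (4 h), absorbance at 570 nm. % TNF inhibition from OD relative to TNF-treated and untreated groups; IC50 and CC50 by Prism.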

[5] = test system: BALB/c mice; experiment: In vivo TNF neutralization assay (TNF/D-galactosamine-induced lethality); set-up: species or system mouse; conditions: 3.3, 16.5 mpk PO 30 minutes before challenge; 24 hours; concentration-dependent
Procedure: Treatment with TNF and a sensitizer D-galactosamine in an in vivo mouse model leads to death from acute liver failure. Thus, the compound of Example 61 (3.3 mpk or 16.5 mpk) was orally administered to BALB/c mice, and after 30 minutes, the mice were IP treated with the mixture of D-galactosamine (21 mg/mouse) and TNF (0.3 μg/mouse). Survival rates were observed and recorded every 3 hours up to 24 hours, and statistically analyzed by log-rank (Mantel-Cox) test using Prism 6 (GraphPad) (N=13/group, **P<0.005, ***P<0.001). mpk, mg/kg). This confirmed that the in vivo neutralization activity of the compounds binding to TNF in a TNF-induced lethality model.

[6] = biological target: TNF-etanercept binding (Homo sapiens, UniProt P01375); experiment: SPR competition: inhibition of TNF-etanercept binding; conditions: etanercept alone vs with compound, FIG. 2e
Procedure: The competition of binding of TNF-inhibiting biopharmaceutical etanercept and the derivative compounds to TNF was measured by SPR assay. Based on the results of pH scouting (10 mM acetate buffer, pH 4.0, 4.5, 5.0, and 5.5), the appropriate buffer pH was determined, and then the recombinant TNF was immobilized on the CM5 chip (4000-5000 RU). In order to correct an effect of DMSO, a solvent correction standard was then prepared, and DMSO was added to the PBST buffer (1×PBS, pH 7.4, 0.05% Tween 20, 0.01% Triton X-100, 5% DMSO) in an amount of 5%. Then, Etanercept alone or in combination with the compounds was flowed into the chip (20 μl/min, 300 s) and dissolved (700 s), and the results of sensorgram were analyzed by a dedicated program. […] At this time, the running buffer was PBST buffer, the regeneration buffer was 10 mM glycine (pH 2.5), and the instrument was Biacore T200 (GE).

[7] = biological target: T1, biotinylated TNF (Homo sapiens, UniProt P01375); experiment: Flow cytometry: binding of biotinylated TNF to Raw 264.7 cells; type: cell-based, mouse; conditions: compound 800, 200, 5 μM, FACS, FIG. 3a
T1 construct: purchased R&D Systems NFTAO
Procedure: First, macrophage Raw 264.7 cells were prepared (4×10^6 cells/ml), and the biotinylated TNF alone or in combination with the 4-benzopyranone derivative compound (800, 200, 5 μM) was added to the cells and reacted (30 min, 4° C.). 10 μl of avidin-FITC reagent was then added and reacted in the dark (30 min, 4° C.). After washing with RDF1 buffer, FACS analysis was carried out (BD Canto). Human TNF-alpha Biotinylated Fluorokine Flow Cytometry Kit (Cat #: NFTAO) of R&D Systems was used in the experiment.

[8] = test system: NF-kB p65; experiment: Western blot: TNF-induced NF-kB p65 nuclear migration in LM cells; type: cell-based, mouse; conditions: TNF 50 ng/ml, 1 hour, compound at about 25 μM
Procedure: First, LM cells was treated with TNF alone (50 ng/ml) or a mixture of TNF and the compound of Example 61 (0, 10, 25, 50 μM) for 1 hour, and then the cells were washed and prepared. After the cytoplasmic fraction and nuclear fraction were separated/obtained using NE-PER nuclear and cytoplasmic extraction reagents (Thermo Scientific, cat #78833), NF-kB p65 protein was detected by SDS-PAGE and Western Blot. Anti-NF-κB p65 rabbit monoclonal antibody (Cell Signaling Technology, cat #D14E12) was used as a primary antibody, and goat anti-rabbit HRP-conjugated antibody (Invitrogen, cat #656120) was used as a secondary antibody. As a Western Blot control protein (housekeeping protein), GAPDH was used in the cytoplasmic fraction, and Lamin B1 was used in the nuclear fraction. Anti-GAPDH mouse monoclonal antibody (GenScript, cat #A01622) was used as a primary antibody of GAPDH, and goat anti-mouse HRP-conjugated antibody (BETHYLlaboratories, cat #A90-116P) was used as a secondary antibody. Anti-Lamin-B1 rabbit monoclonal antibody (Cell Signaling Technology, cat #12586S) was used as a primary antibody of Lamin B1, and anti-rabbit HRP-conjugated antibody (Invitrogen, cat #656120) was used as a secondary antibody.

Sequence of TNF (P01375 77-233 limits assumed): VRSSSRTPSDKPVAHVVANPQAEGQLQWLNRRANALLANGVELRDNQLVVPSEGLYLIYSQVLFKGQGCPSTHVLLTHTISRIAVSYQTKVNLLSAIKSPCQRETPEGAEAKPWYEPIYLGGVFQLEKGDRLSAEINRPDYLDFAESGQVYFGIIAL
Sequence of etanercept (P20333 with tags, fused parts or gaps limits assumed): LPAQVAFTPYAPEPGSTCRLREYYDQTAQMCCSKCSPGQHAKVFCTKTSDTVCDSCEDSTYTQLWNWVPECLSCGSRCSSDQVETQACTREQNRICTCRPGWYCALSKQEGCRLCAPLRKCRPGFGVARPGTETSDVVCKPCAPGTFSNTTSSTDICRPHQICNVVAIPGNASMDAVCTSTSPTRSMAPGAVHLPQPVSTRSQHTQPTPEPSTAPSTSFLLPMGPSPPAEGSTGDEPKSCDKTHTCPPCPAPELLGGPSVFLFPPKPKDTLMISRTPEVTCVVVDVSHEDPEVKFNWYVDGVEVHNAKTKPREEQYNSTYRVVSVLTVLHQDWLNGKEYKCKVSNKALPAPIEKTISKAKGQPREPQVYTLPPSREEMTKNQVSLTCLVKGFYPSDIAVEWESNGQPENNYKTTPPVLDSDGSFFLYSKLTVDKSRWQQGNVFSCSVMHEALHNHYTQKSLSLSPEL
Sequence of TNF-etanercept binding (P01375 77-233 limits assumed): as the sequence (P01375 77-233 limits assumed) above
T1 sequence (P01375 77-233 limits assumed): as above

## O=C(O)c1c(-c2cc(F)ccc2F)oc2cc(Cl)ccc2c1=O [Example 61, 2-(2,5-difluorophenyl)-3-carboxy-7-chloro-(4H)-4-benzopyranone]
[1]
  CC50 at 24 h: > 50000 nM
[2]; 25, 50 and 100 mpk PO, three times a week, Week 15 to 23, vs negative control
  therapeutic effect on rheumatoid arthritis (pathology score): remarkable therapeutic effect
[2]; 50 and 100 mpk PO, adalimumab 1.2 mpk, etanercept 4.5 mpk
  effect in comparison with adalimumab and etanercept: non-inferior effect
[3]
  binding to etanercept: did not bind to etanercept
[4]; compound 50 μM, TNF 20 ng/ml, actinomycin D, LM cells, 24 hours
  inhibition at 50 µM: 95.7%
[4]; inhibition of TNF-induced LM cell death
  pIC50: 5.74
[5]
  death of mice due to acute hepatotoxicity induced by D-galactosamine and TNF: inhibited
[6]
  inhibition of TNF-etanercept binding: significantly inhibited the TNF-etanercept binding
[7]
  inhibitory activity against TNF-cell binding: decreased the target cell binding of TNF to the basal level in a concentration-dependent manner
[8]
  migration of NF-kB from the cytoplasm to the nucleus activated by TNF: almost completely inhibited
